From paper PMC3030572, “Antamanide, a Derivative of Amanita phalloides, Is a Novel Inhibitor of the Mitochondrial Permeability Transition Pore” (PLoS ONE, 2011)
Entries after “also recorded” stand apart in the source; their conditions may differ.

Assays:
[1] = tested on: mitochondrial permeability transition pore (PTP), wild-type fibroblasts; experiment: CRC assay, mitochondria isolated from wild-type mouse fibroblasts; assay type: biochemical; conditions: Figure 3B
Protocol: (§1) Figure 3 Effect of AA on respiration and PTP opening in mitochondria of wild-type or CyP-D knock-out mouse fibroblasts. A, upper part: Western blot analysis assessing CyP-D expression in fibroblasts obtained from either wild-type or CyP-D knock-out mice; HKII was utilized to verify protein load; lower part: representative experiment showing oxygen consumption as assessed by polarography (see Methods) in mitochondria isolated from wild-type fibroblasts in the absence (a) or presence (b) of 8 µM AA. Experiments were started by adding 0.6 mg of mitochondria (Mito), followed by 100 µM ADP and 50 µM 2,4-dinitrophenol (DNP) (arrows). Each experiment was repeated at least three times. Oxygen consumption is reported as percentage of initial value on the y axis. B, bar graphs report the ratio between the CRC detected in the presence (CRC) and absence (CRC0) of increasing concentrations of AA, in mitochondria from either wild-type fibroblasts (left) or CyP-D knock-out fibroblasts (right).
Mitochondria were isolated either from livers of C57BL/6 mice through sequential centrifugations, or from cells, as described. To obtain mitochondria, cells were disrupted with a glass-Teflon potter in a buffer composed by 250 mM sucrose, 10 mM Tris-HCl, 0.1 mM EGTA-Tris, pH 7.4. Nuclei and plasma membrane fractions were separated by a first mild centrifugation (700× g, 10 min), and mitochondria were then spinned down at a higher speed (7000× g, 10 min). All procedures were carried out at 0–4°C.
(§2) PTP opening was detected as a fluorescence increase.

[2] = tested on: mitochondrial permeability transition pore (PTP), CyP-D knock-out fibroblasts; experiment: CRC assay, mitochondria isolated from CyP-D knock-out mouse fibroblasts; assay type: biochemical; conditions: 25°C, Figure 3B
Protocol: as §1, with “(right). […] Results are mean±SD of at least 4 experiments.” for “(right).”
Mitochondria were isolated either from livers of C57BL/6 mice through sequential centrifugations, or from cells, as described. To obtain mitochondria, cells were disrupted with a glass-Teflon potter in a buffer composed by 250 mM sucrose, 10 mM Tris-HCl, 0.1 mM EGTA-Tris, pH 7.4. […]
as §2

[3] = tested on: mitochondria from CyP-D knock-out fibroblasts; experiment: mitochondrial respiration assay, CyP-D knock-out fibroblast mitochondria; assay type: biochemical, mouse; conditions: polarography, Clark electrode, 25°C
Protocol: as §1, with “(right). […] Results are mean±SD of at least 4 experiments.” for “(right).”
Mitochondrial oxygen consumption was measured polarographically at 25°C with a Clark oxygen electrode (Yellow Springs Instruments, OH, USA). Mitochondria (0.6 mg per experimental point) were incubated in a solution of 130 mM KCl, 10 mM Tris-Mops, 1 mM Pi-Tris, 20 mM EGTA-Tris and 2 µM rotenone/5 mM succinate to assay basal respiration (state 4). […]

HeLa cells [4] = assay type: cell-based, human; conditions: 30 min preincubation, TMRM, n = 4
Protocol: Figure 5 Effect of AA on mitochondrial potential of HeLa cells. A, bar graphs report the ratio between the CRC detected in the presence (CRC) and absence (CRC0) of increasing concentrations of AA in mitochondria from HeLa cells. […] B,C cytofluorimetric analysis of mitochondrial depolarization. HeLa cells were incubated with the TMRM probe and treated for 1 hour with the reported concentrations of either clotrimazole (CTM) or TAT-HK peptide. An unrelated TAT-linked peptide (TAT-Ctr) is used as a negative control. […] Bar graphs in B display the percentage of cells with depolarized mitochondria (mean±SD, n = 4). […] Histograms in C report a representative experiment, where cells with polarized and depolarized mitochondria are indicated in red and grey, respectively.
(§3) Flow cytometry recordings were performed as described, [51], [52]. Briefly, at the end of the incubation, cells were resuspended in 135 mM NaCl, 10 mM HEPES, 5 mM CaCl2 and incubated at 37°C in either TMRM (10 nM) to detect mitochondrial depolarization (reduced TMRM staining), or in FITC-conjugated Annexin-V and propidium iodide (PI, 1 µg/ml), to detect phosphatidylserine exposure on the cell surface (increased FITC-conjugated Annexin-V staining) and loss of plasma membrane integrity (PI permeability and staining). […] Samples were analyzed on a FACSCanto II flow cytometer (Becton Dickinson, San Diego, CA, USA). Data acquisition and analysis were performed using FACSDiva software.

HeLa cells [5] = assay type: cell-based, human; conditions: 30 min preincubation, then TAT-HK 1 hour
Protocol: A, cytofluorimetric analysis of cell death induction in HeLa cells treated for 1 hour with TAT-HK. […] TAT-Ctr was used as a negative control. Cells were double stained with Annexin V-FITC and propidium iodide (PI), to respectively evaluate apoptosis induction as phosphatidylserine exposure on the cell surface (increased Annexin V-FITC staining) and cell death as plasma membrane permeabilization (increased PI staining). We considered Annexin V^+ as early/intermediate apoptotic cells; PI^+ as necrotic cells; double stained as late apoptotic cells. Bar graphs display the percentage of each cell population (mean±SD, n = 4; double positive cells are added to both bars). […] B, histograms reporting a representative experiment, where viable cells are indicated in red, PI^+- and Annexin V^+-cells are indicated in grey and green, respectively.
as §3

[6] = tested on: organic anion-transporting polypeptide family; conditions: also our unpublished data; ref [8]; cited from earlier work
Description: Antamanide (AA) is a monocyclic, homodetic decapeptide isolated from the poisonous mushroom Amanita phalloides. […] Little is known about the biochemical mechanisms underlying these diverse bioactivities. […] The CyP chaperone activity, i.e. the isomerization to the cis form of the peptidyl bonds preceding each proline, is involved in folding and association processes required for proteins to perform thei ...

Antamanide [AA]
CRC/CRC0: difference from CRC of untreated mitochondria ([1]; AA at various concentrations, mean±SD of at least 4 experiments, Student's t test): significant difference (Student's t test analysis; *: p<0.01) | additivity of PTP inhibition with CsA ([1]; combination with CsA): not enhanced by CsA; also recorded: not additive | PTP inhibition (CRC) ([1]; isolated mitochondria, 25°C): AA inhibited the pore in mitochondria from wild-type fibroblasts | PTP inhibition (CRC) [2]: totally ineffective | oxygen consumption [3]: unaffected | reversal of CTM-induced mitochondrial depolarization (HeLa cells [4]; then CTM 1 hour): significantly decreased the percentage of cells with mitochondria depolarized by CTM (Student's t test analysis; *: p<0.01); also recorded: similarly reverted | reversal of TAT-HK-induced mitochondrial depolarization (HeLa cells [4]; then TAT-HK 1 hour): similarly reverted | effect on TAT-HK-induced necrotic response (HeLa cells [5]): virtually abolished the necrotic response | residual apoptosis after TAT-HK (HeLa cells [5]): a small fraction of cells undergoing apoptosis was still detectable | protection from TAT-HK induced death (HeLa cells [5]; n = 4, Student's t test *: p<0.01): significantly protected from TAT-HK induced death | inhibition of cell uptake of phalloidin [6]: block cell uptake of the phallotoxin phalloidin
